Where a name gives a salt, the structure may show the parent alone.
Test system: 22RV1 cells
Test: Experiment 2 on inhibiting 22RV1 cell proliferation (7 days, CellTiter-Glo)
Format: cell-based
Conditions: Homo sapiens, 22Rv1, 168 h, 1% css-FBS phenol red-free medium, incubated with compound 7 days, read-out: IC50 values on proliferation inhibition of 22RV1 cells
Summary of the method: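 Survival measured by CellTiter-Glo after 7 days of compound exposure, normalised to DMSO controls, with IC50 fitted by dose-response. Cells (22RV1, 2000/well) were seeded overnight in 1% css-FBS phenol red-free medium before dosing.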

IC50	Compound
612 nM	CC(C)(c1ccc(OCc2ccnc(N3CC4(CCN(CC5CN(c6ccc7c(c6)C(=O)N(C6CCC(=O)NC6=O)C7=O)C5)CC4)C3)n2)cc1)c1cc(Cl)cc(C#N)c1 (stereo not shown) [Compound 70 trifluoroacetate, 3-chloro-5-(2-(4-((2-(7-((1-(2-(2,6-dioxopiperidin-3-yl)-1,3-dioxoisoindolin-5-yl)azetidin-3-yl)methyl)-2,7-diazaspiro[3.5]nonan-2-yl)pyrimidin-4-yl)methoxy)phenyl)propan-2-yl)benzonitrile]
811 nM	Cn1c(=O)n(C2CCC(=O)NC2=O)c2ccc(CN3CC(N4CCC(N5CCN(c6nccc(COc7ccc(C(C)(C)c8cc(Cl)cc(C#N)c8)cc7)n6)CC5)CC4)C3)cc21 (stereo not shown) [Compound 71 trifluoroacetate, 3-chloro-5-(2-(4-((2-(4-(1-(1-((1-(2,6-dioxopiperidin-3-yl)-3-methyl-2-oxo-2,3-dihydro-1H-benzo[d]imidazol-5-yl)methyl)azetidin-3-yl)piperidin-4-yl)piperazin-1-yl)pyrimidin-4-yl)methoxy)phenyl)propan-2-yl)benzonitrile]
464 nM	CC(C)(c1ccc(OCc2ccnc(N3CC4CN(CC5CCN(c6ccc7c(c6)C(=O)N(C6CCC(=O)NC6=O)C7=O)CC5)CC4C3)n2)cc1)c1cc(Cl)cc(C#N)c1 (stereo not shown) [Compound 72 trifluoroacetate, 3-chloro-5-(2-(4-((2-(5-((1-(2-(2,6-dioxopiperidin-3-yl)-1,3-dioxoisoindolin-5-yl)piperidin-4-yl)methyl)hexahydropyrrolo[3,4-c]pyrrol-2(1H)-yl)pyrimidin-4-yl)methoxy)phenyl)propan-2-yl)benzonitrile]
97 nM	CC(C)(c1ccc(OCc2ccnc(N3CC4CN(CC5CN(c6ccc7c(c6)C(=O)N(C6CCC(=O)NC6=O)C7=O)C5)CC4C3)n2)cc1)c1cc(Cl)cc(C#N)c1 (stereo not shown) [Compound 73 trifluoroacetate, 3-chloro-5-(2-(4-((2-(5-((1-(2-(2,6-dioxopiperidin-3-yl)-1,3-dioxoisoindolin-5-yl)azetidin-3-yl)methyl)hexahydropyrrolo[3,4-c]pyrrol-2(1H)-yl)pyrimidin-4-yl)methoxy)phenyl)propan-2-yl)benzonitrile]
474 nM	Cn1c(=O)n(C2CCC(=O)NC2=O)c2cccc(CN3CCC(CN4CCC(C5CCN(c6nccc(COc7ccc(C(C)(C)c8cc(Cl)cc(C#N)c8)cc7)n6)CC5)CC4)CC3)c21 (stereo not shown) [Compound 74 trifluoroacetate, 3-chloro-5-(2-(4-((2-(1′-((1-((1-(2,6-dioxopiperidin-3-yl)-3-methyl-2-oxo-2,3-dihydro-1H-benzo[d]imidazol-4-yl)methyl)piperidin-4-yl)methyl)-[4,4′-bipiperidin]-1-yl)pyrimidin-4-yl)methoxy)phenyl)propan-2-yl)benzonitrile]
275 nM	CC(C)(c1ccc(OCc2ccnc(N3CCC4(CC3)CN(C3CCN(C5CN(c6ccc7c(c6)C(=O)N(C6CCC(=O)NC6=O)C7=O)C5)CC3)C4)n2)cc1)c1cc(Cl)cc(C#N)c1 (stereo not shown) [Compound 75 trifluoroacetate, 3-chloro-5-(2-(4-((2-(2-(1-(1-(2-(2,6-dioxopiperidin-3-yl)-1,3-dioxoisoindolin-5-yl)azetidin-3-yl)piperidin-4-yl)-2,7-diazaspiro[3.5]nonan-7-yl)pyrimidin-4-yl)methoxy)phenyl)propan-2-yl)benzonitrile]
475 nM	CC(C)(c1ccc(OCc2ccnc(N3CCC4(CC3)CN(C3CN(C5CN(c6ccc7c(c6)C(=O)N(C6CCC(=O)NC6=O)C7=O)C5)C3)C4)n2)cc1)c1cc(Cl)cc(C#N)c1 (stereo not shown) [Compound 76 trifluoroacetate, 3-chloro-5-(2-(4-((2-(2-(1′-(2-(2,6-dioxopiperidin-3-yl)-1,3-dioxoisoindolin-5-yl)-[1,3′-biazetidin]-3-yl)-2,7-diazaspiro[3.5]nonan-7-yl)pyrimidin-4-yl)methoxy)phenyl)propan-2-yl)benzonitrile]

— patent US20240383874A1, “BENZENE RING DERIVATIVE, AND COMPOSITION AND PHARMACEUTICAL USE THEREOF” (Xizang Haisco Pharmaceutical Co., Ltd., priority 2020, published 2024)
